Assay results reported in patent US7641919B2, “Anti-bacterial plant compositions” (priority 2001, dated 2010).

Tests used:
[1] = test system: M. tuberculosis 27294 (a streptomycin sensitive strain, ATCC); assay: BACTEC-460 growth inhibition (growth index, 14CO2); assay type: cell-based, Mycobacterium tuberculosis; conditions: positive control, 50 μg/ml
[2] = test system: E-Coli 25922; assay: zone of inhibition against E. coli; assay type: cell-based, Escherichia coli; conditions: HPLC fractions of methylene chloride extract; 6 mm disc; control 10 micrograms streptomycin
Procedure: An HPLC separation and isolation of an active fraction was attempted. High Pressure Liquid Chromatography (HPLC) was performed using a Discovery RP-Amide C-16 Column, 15 cm long, 4.6 mm wide (Supelco, Bellefort, Pa.). An isocratic, i.e. steady concentration, of a polar solvent phase was used. The solvent phase consisted of dilute phosphoric acid in methanol. The flow rate was 2 ml/minute. Therefore exit is dependent on MW (larger MW exists later) and polarity. The more polar the compound, the quicker it solubilizes into the solvent, but it is retained longer in the static phase of the column which holds back the more polar compounds. The fractions were monitored by UV, at 254 nm wave-length. One to three fraction per plant extract were collected at the indicated times. […] See, for example, FIGS. 1-3. Based on consideration of the relative polarity and molecular weights of the compounds identified for the respective plants in the total methylene chloride extract, the compounds in the right-most column of table 5 “Additional Compounds” lists compounds which are not observed in the active fraction of the extract of the respective plants, but which are likely to be present in smaller quantities (“trace amounts”) in the active fraction and which might contribute to the anti-mycobacterial activity.

[3] = test system: M. smegmatis 607 (ATCC); assay: agar-disk diffusion assay, zone of inhibition; assay type: cell-based, Mycobacterium smegmatis; conditions: HPLC fractions of methylene chloride extract; 6 mm disc; control 10 micrograms streptomycin

With `[H]/N=C(/N)N[C@H]1[C@H](O)[C@@H](O)[C@H](O[C@@H]2O[C@@H](C)[C@](O)(C=O)[C@H]2O[C@@H]2O[C@@H](CO)[C@H](O)[C@@H](O)[C@@H]2NC)[C@@H](N/C(N)=N\[H])[C@@H]1O` [Streptomycin] the “Δ G1 (growth index change)” value [1] was “Positive control Streptomycin (50 μg/ml) resulting in a Δ G1 of −2.8”, the “E-Coli 25922 ZOI (mm)” value [2] was 14 mm and the “M. Smegmatis ATCC 607 ZOI (mm)” value [3] was 17 mm.
